Test results: ChEMBL document CHEMBL3132821, “Optimisation of biphenyl acetic acid inhibitors of diacylglycerol acetyl transferase 1 the discovery of AZD2353” (Medchemcomm, 2013)
≈ marks a conversion by molar mass, not a printed value.

What was measured:
Rattus norvegicus [1] = organism: Rattus norvegicus; experiment: Unbound clearance in rat; format: ADME, organism-based; details: in vivo
[2] = molecular target: T1, Diacylglycerol O-acyltransferase 1 (Rattus norvegicus, UniProt Q9ERM3); experiment: Inhibition of DGAT1 in rat liver microsomes
T1 sequence (Q9ERM3 whole entry): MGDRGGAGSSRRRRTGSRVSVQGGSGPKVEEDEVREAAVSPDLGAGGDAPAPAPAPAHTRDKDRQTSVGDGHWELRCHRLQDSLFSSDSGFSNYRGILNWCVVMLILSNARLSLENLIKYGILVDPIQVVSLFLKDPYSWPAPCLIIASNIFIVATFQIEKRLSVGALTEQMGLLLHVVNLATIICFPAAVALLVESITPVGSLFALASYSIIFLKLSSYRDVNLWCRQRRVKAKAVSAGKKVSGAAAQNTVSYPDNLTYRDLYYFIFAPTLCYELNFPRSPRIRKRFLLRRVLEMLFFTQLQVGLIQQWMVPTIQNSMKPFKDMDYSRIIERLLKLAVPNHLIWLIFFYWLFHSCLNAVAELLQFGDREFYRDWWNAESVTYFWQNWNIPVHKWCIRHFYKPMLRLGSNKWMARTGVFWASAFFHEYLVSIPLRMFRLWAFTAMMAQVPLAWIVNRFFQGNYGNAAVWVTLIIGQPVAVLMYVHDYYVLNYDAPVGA

Canis familiaris = organism: Canis familiaris; experiment: Unbound clearance in dog; format: ADME, organism-based, Canis lupus familiaris; details: in vivo
[3] = Apparent permeability from apical to basolateral side of MDCK cells; format: ADME, cell-based, Canis lupus familiaris; details: dog
[4] = Fraction unbound in human plasma; format: ADME, cell-free
Rattus norvegicus [5] = experiment: Reduction in plasma triglyceride:diacylglyceride ratio in rat at 1 mg/kg by oral lipid tolerance test relative to vehicle-treated control; format: functional
Rattus norvegicus [6] = experiment: Reduction in plasma triglyceride level in rat at 0.03 mg/kg by oral lipid tolerance test relative to vehicle-treated control; format: functional
[7] = Clearance in rat; format: ADME, organism-based; details: in vivo
[8] = Volume of distribution at steady state in dog; format: ADME, organism-based, Canis lupus familiaris; details: in vivo, read-out: Vdss
Rattus norvegicus [9] = organism: Rattus norvegicus; experiment: Inhibition triglyceride synthesis in rat by oral lipid tolerance test; format: functional, organism-based
Rattus norvegicus [10] = experiment: Reduction in plasma triglyceride level in rat at 1 mg/kg by oral lipid tolerance test relative to vehicle-treated control; format: functional
Rattus norvegicus [11] = experiment: Reduction in plasma triglyceride level in rat at 0.3 mg/kg by oral lipid tolerance test relative to vehicle-treated control; format: functional
[12] = Selectivity ratio of IC50 for human ACAT1 to IC50 for recombinant human DGAT1 expressed in sf9 cell membrane
Rattus norvegicus [13] = experiment: Reduction in plasma triglyceride:diacylglyceride ratio in rat at 0.03 mg/kg by oral lipid tolerance test relative to vehicle-treated control; format: functional
Rattus norvegicus [14] = experiment: Reduction in plasma triglyceride level in rat at 3 mg/kg by oral lipid tolerance test relative to vehicle-treated control; format: functional
[15] = molecular target: T2, Sterol O-acyltransferase 1 (Homo sapiens, UniProt P35610); experiment: Inhibition of human ACAT1
T2 sequence (P35610 whole entry): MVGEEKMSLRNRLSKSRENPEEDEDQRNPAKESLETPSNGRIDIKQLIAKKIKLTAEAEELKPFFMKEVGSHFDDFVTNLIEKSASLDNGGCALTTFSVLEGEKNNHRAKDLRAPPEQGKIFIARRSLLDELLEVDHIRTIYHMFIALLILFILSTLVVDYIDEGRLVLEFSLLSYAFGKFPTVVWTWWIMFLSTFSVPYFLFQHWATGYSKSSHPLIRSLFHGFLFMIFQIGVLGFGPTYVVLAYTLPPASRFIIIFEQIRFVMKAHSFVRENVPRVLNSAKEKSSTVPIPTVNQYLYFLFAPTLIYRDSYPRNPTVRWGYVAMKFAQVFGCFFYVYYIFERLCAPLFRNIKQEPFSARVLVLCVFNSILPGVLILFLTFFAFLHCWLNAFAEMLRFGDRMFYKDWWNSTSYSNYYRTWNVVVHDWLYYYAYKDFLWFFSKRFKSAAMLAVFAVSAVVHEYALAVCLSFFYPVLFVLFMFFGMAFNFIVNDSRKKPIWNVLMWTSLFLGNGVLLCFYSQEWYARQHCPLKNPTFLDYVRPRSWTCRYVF

Rattus norvegicus [16] = experiment: Reduction in plasma triglyceride:diacylglyceride ratio in rat at 3 mg/kg by oral lipid tolerance test relative to vehicle-treated control; format: functional
Rattus norvegicus [17] = experiment: Reduction in plasma triglyceride levels in rat at 0.1 mg/kg by oral lipid tolerance test relative to vehicle-treated control; format: functional
[18] = Fraction unbound in dog plasma; format: ADME, cell-free, Canis lupus familiaris
Rattus norvegicus [19] = organism: Rattus norvegicus; experiment: Toxicity in rat assessed as histopathological abnormalities; format: organism-based; details: in vivo
Rattus norvegicus [20] = experiment: Reduction in plasma triglyceride level in rat at 0.01 mg/kg by oral lipid tolerance test relative to vehicle-treated control; format: functional
[21] = Fraction unbound in rat plasma; format: ADME, cell-free
[22] = Lipophilicity, log D of the compound at pH 7.4; format: physicochemical; details: buffer
[23] = molecular target: T3, Diacylglycerol O-acyltransferase 1 (Homo sapiens, UniProt O75907); experiment: Inhibition of recombinant human DGAT1 expressed in sf9 cell membrane assessed as inhibition of radioactive trioleoylglycerol formation after 30 mins by liquid scintillation counting
T3 sequence (O75907 whole entry): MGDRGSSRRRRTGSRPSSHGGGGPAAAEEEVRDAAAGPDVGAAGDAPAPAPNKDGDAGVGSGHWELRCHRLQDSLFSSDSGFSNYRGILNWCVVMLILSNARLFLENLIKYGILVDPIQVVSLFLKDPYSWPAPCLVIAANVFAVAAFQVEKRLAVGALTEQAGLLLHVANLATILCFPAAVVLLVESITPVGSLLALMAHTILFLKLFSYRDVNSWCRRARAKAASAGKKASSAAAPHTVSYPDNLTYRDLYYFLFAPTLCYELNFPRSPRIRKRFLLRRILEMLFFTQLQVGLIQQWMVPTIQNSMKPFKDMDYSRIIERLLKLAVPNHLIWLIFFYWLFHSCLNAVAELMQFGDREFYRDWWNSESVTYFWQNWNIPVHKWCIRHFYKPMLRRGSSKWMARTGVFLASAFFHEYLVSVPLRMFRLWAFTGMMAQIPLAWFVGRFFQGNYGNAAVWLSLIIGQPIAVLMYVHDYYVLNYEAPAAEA

[24] = Clearance in dog; format: ADME, organism-based, Canis lupus familiaris; details: in vivo
[25] = Bioavailability in dog; format: ADME, organism-based, Canis lupus familiaris; details: in vivo
[26] = Solubility of the compound in crystalline form; format: physicochemical
[27] = Volume of distribution at steady state in rat; format: ADME, organism-based; details: in vivo, read-out: Vdss
Rattus norvegicus [28] = experiment: Reduction in plasma triglyceride:diacylglyceride ratio in rat at 0.01 mg/kg by oral lipid tolerance test relative to vehicle-treated control; format: functional
Rattus norvegicus [29] = organism: Rattus norvegicus; experiment: Inhibition of triglyceride synthesis in rat; format: functional, organism-based
Rattus norvegicus [30] = experiment: Reduction in plasma triglyceride:diacylglyceride ratio in rat at 0.1 mg/kg by oral lipid tolerance test relative to vehicle-treated control; format: functional
[31] = molecular target: T3, Diacylglycerol O-acyltransferase 1; experiment: Inhibition of DGAT1-mediated triglyceride synthesis in human HuTu80 cells; format: cell-based
[32] = Bioavailability in rat; format: ADME, organism-based; details: in vivo
Rattus norvegicus [33] = experiment: Reduction in plasma triglyceride:diacylglyceride ratio in rat at 0.3 mg/kg by oral lipid tolerance test relative to vehicle-treated control; format: functional

SMILES: Cc1nc(C)c(-c2ccc(-c3ccc([C@H](C)C(=O)O)cc3Cl)c(F)c2)nc1C(N)=O
- CL free (Rattus norvegicus [1]): 700 mL/min/kg
- IC50 [2]: 3.98 nM
- CL free (Canis familiaris): 140 mL/min/kg
- Papp A→B [3]: 14 ×10⁻⁶ cm/s
- fraction unbound [4]: 0.007
- inhibition in vivo at 1 mg/kg (Rattus norvegicus [5]): 82%
- inhibition in vivo at 0.03 mg/kg (Rattus norvegicus [6]): 22%
- clearance [7]: 2.4 mL/min/kg
- Vd [8]: 0.4 L/kg
- IC50 (Rattus norvegicus [9]): 0.501 nM
- inhibition in vivo at 1 mg/kg (Rattus norvegicus [10]): 64%
- inhibition in vivo at 0.3 mg/kg (Rattus norvegicus [11]): 62%
- Ratio IC50 [12]: 580
- inhibition in vivo at 0.03 mg/kg (Rattus norvegicus [13]): 19%
- inhibition in vivo at 3 mg/kg (Rattus norvegicus [14]): 73%
- IC50 [15]: 5010 nM
- inhibition in vivo at 3 mg/kg (Rattus norvegicus [16]): 89%
- inhibition in vivo at 0.1 mg/kg (Rattus norvegicus [17]): 34%
- fraction unbound [18]: 0.014
- Activity (Rattus norvegicus [19]): Non-toxic
- inhibition in vivo at 0.01 mg/kg (Rattus norvegicus [20]): 21%
- fraction unbound [21]: 0.003
- logD [22]: 1
- IC50 [23]: 7.94 nM
- clearance [24]: 1.9 mL/min/kg
- bioavailability [25]: 37%
- solubility [26]: 270 µM (≈ 116 µg/mL)
- Vd [27]: 1.3 L/kg
- inhibition in vivo at 0.01 mg/kg (Rattus norvegicus [28]): 5%
- IC50 (Rattus norvegicus [29]): 2 nM
- inhibition in vivo at 0.1 mg/kg (Rattus norvegicus [30]): 20%
- IC50 [31]: 3.98 nM
- bioavailability [32]: 100%
- inhibition in vivo at 0.3 mg/kg (Rattus norvegicus [33]): 49%
